In patent publication US7811797B2, “α-isomaltosylglucosaccharide-forming enzyme, process and uses of the same” (Kabushiki Kaisha Hayashibara Seibutsu Kagaku Kenkyujo, priority 2000, dated 2010):

Test system: α-isomaltosylglucosaccharide-forming enzyme
Test: Transfer-acceptor specificity, Enzyme of Strain C11
Type: biochemical, Bacillus globisporus C11
Conditions: acceptor 1.6%, PINE-DEX #100 donor 4%, one unit/g donor, 30° C., pH 6.0, 24 hours

OC[C@@H](O)[C@@H](O[C@H]1O[C@H](CO)[C@@H](O)[C@H](O)[C@H]1O)[C@H](O)[C@@H](O)CO [Maltitol, reference compound]
Product of transferring reaction, Enzyme of Strain C11: ++ (a saccharide-transferred product was detected in an amount over ten percent through transfer reaction to acceptor)
